Laboratory results reported in PMC6591010 (Molecular cell, 2019).

How the values were obtained:
Ct Smc4hd–Brn1C = Ct Smc4hd–Brn1C (Thermochaetoides thermophila, UniProt G0S2G2, DEL467-1366/Q421L); assay: biochemical
Sc condensin holocomplex = Sc condensin holocomplex (Saccharomyces cerevisiae, UniProt P38989+Q12267); details: with or without DNA

Chain of Ct Smc4hd–Brn1C (G0S2G2 264-466 Q421L): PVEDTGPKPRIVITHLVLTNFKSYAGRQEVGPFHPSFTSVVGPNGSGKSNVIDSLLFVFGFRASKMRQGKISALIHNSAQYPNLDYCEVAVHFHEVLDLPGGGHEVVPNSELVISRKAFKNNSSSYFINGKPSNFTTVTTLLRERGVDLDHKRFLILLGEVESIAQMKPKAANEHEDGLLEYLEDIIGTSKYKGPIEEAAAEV
Chain of Ct Smc4hd–Brn1C (G0S2G2 1367-1542, stated change not applied): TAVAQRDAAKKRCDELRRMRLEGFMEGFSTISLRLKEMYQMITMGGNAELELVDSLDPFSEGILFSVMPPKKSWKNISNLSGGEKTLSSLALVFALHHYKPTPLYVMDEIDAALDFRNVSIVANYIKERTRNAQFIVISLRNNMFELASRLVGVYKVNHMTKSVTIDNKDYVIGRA
Chain of Ct Smc4hd–Brn1C (G0SBJ6 765-898 partner): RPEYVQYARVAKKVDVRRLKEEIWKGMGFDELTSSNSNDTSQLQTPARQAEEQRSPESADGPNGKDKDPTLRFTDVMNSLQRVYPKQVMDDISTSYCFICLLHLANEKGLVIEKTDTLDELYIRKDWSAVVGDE

With `Nc1ncnc2c1ncn2[C@@H]1O[C@H](COP(=O)(O)OP(=O)(O)OP(=O)(O)O)[C@@H](O)[C@H]1O` [ATP] the Kd (Ct Smc4hd–Brn1C) was 18.4 µM and the ATP hydrolysis assay (Sc condensin holocomplex) was “basal and DNA-stimulated ATPase activities of condensin holocomplexes”.
